Experimental data reported in patent publication US7060725B2, “Substituted sulfamate anticonvulsant derivatives” (Janssen Pharmaceutica N.V., priority 2002, dated 2006).

Assays:
[1] = test system: maximal electroshock seizure (MES-induced seizure spread); experiment: Maximal electroshock seizure (MES) test, rat; assay type: in vivo, rats
Procedure: Anticonvulsant activity was determined using the standard MES model for generalized tonic-clonic seizures (Swinyard E A, Woodhead J H, White H S, Franklin M R, In: […], Meldrum […], Dreifuss F E eds. Antiepileptic drugs. New York: Raven Press, 1989:85-102). An electric stimulus of 0.2 sec duration, 60 Hz, 50 mA in mice, 150 mA in rats, was delivered via corneal electrodes primed with an electrolyte solution containing an anesthetic agent (0.5% tetracaine hydrochloride in 0.9% saline). Mice or rats were randomly selected into control and test groups. The animals were dosed with vehicle or test compound, at varying concentrations. Mice were subjected to the electrical stimulus at 30 minutes and 4 hours following administration of test compound. […] Abolition of the hind limb tonic extensor component was an indication of the test compound's ability to inhibit MES-induced seizure spread. […] A probit analysis (Finney D J. Probit Analysis. Cambridge, England: Cambridge University Press, 1971) was used to calculate the ED50. Following the rat procedure described above, representative compounds of the instant invention were tested for biological activity in the rat, with results as listed in Table 6 and 7. Rat activity is listed as number of rats active/total number of rats tested @ time after administration of the test compound.

[2] = test system: maximal electroshock seizure (MES-induced seizure spread); experiment: Maximal electroshock seizure (MES) test, mouse; assay type: in vivo, mice
Procedure: Anticonvulsant activity was determined using the standard MES model for generalized tonic-clonic seizures (Swinyard E A, Woodhead J H, White H S, Franklin M R, In: Levy R H, Mattson R H, Meldrum B S, Penry J K, Dreifuss F E eds. Antiepileptic drugs. New York: Raven Press, 1989:85–102).
An electric stimulus of 0.2 sec duration, 60 Hz, 50 mA in mice, 150 mA in rats, was delivered via corneal electrodes primed with an electrolyte solution containing an anesthetic agent (0.5% tetracaine hydrochloride in 0.9% saline).
Mice or rats were randomly selected into control and test groups. The animals were dosed with vehicle or test compound, at varying concentrations. […] Rats were subjected to electrical stimulus at time intervals between 15 minutes and 4 hours following administration of test compound. Abolition of the hind limb tonic extensor component was an indication of the test compound's ability to inhibit MES-induced seizure spread.
The ED50 (the calculated dose required to block the hindlimb tonic-extensor component of the maximal electroshock seizure in 50% of the animals tested) was calculated. A probit analysis (Finney D J. Probit Analysis. Cambridge, England: Cambridge University Press, 1971) was used to calculate the ED50.
Following the mouse procedure described above, representative compounds of the instant invention were tested for biological activity in the mouse, with results as listed in Table 5. Mouse activity is listed as number of mice active/total number of mice tested @ time after administration of the test compound.

[3] = 100 mg/kg, @ 0.5 hrs after administration
[4] = 100 mg/kg, @ 4 hrs after administration
[5] = 300 mg/kg, @ 0.5 hrs after administration
[6] = 300 mg/kg, @ 4 hrs after administration

Row | Structure (SMILES) | Mouse Activity ([2]; dosage 30, 100, 300 mg/kg) | Rat Activity (oral) (number of rats active/total number of rats tested) ([1]; 30 mg/kg, @ 4 hrs) | Mouse Activity (number of mice active/total number of mice tested) [2, 5] | ED50 ([1]; @ 4 hrs) | Rat Activity (oral) (number of rats active/total number of rats tested) ([1]; 30 mg/kg, @ 0.25 hrs) | Rat Activity (oral) (number of rats active/total number of rats tested) ([1]; 30 mg/kg, @ 0.5 hrs) | Rat Activity (oral) (number of rats active/total number of rats tested) ([1]; 30 mg/kg, @ 1 hr) | Rat Activity (oral) (number of rats active/total number of rats tested) ([1]; 30 mg/kg, @ 2 hrs) | other results
1 | C=CCNS(=O)(=O)OC[C@@]12OC[C@H]3OC(C)(C)OC3[C@@H]1OC(C)(C)O2 (stereo partly drawn) [Compound 2, N-allyl-2,3:4,5-bis-O-(1-methylethylidene)-β-D-fructopyranose sulfamate] |  |  |  |  |  |  |  |  | ED50 ([1]; @ 2 hrs): 11.89 @ 2 hrs m/k; Rat Activity (oral) (number of rats active/total number of rats tested) ([1]; 8 mg/kg, @ 2 hrs): 3/4 @ 2 hrs; Rat Activity (oral) (number of rats active/total number of rats tested) ([1]; 8 mg/kg, @ 4 hrs): 2/4 @ 4 hrs; Rat Activity (oral) (number of rats active/total number of rats tested) ([1]; 8 mg/kg, @ 6 hrs): 1/4 @ 6 hrs; Rat Activity (oral) (number of rats active/total number of rats tested) ([1]; 8 mg/kg, @ 8 hrs): 1/4 @ 8 hrs; Rat Activity (oral) (number of rats active/total number of rats tested) ([1]; 20 mg/kg, @ 0.5 hrs): 1/4 @ 0.5 hrs; Rat Activity (oral) (number of rats active/total number of rats tested) ([1]; 20 mg/kg, @ 2 hrs): 2/2 @ 2 hrs; Rat Activity (oral) (number of rats active/total number of rats tested) ([1]; 20 mg/kg, @ 4 hrs): 1/2 @ 4 hrs; Rat Activity (oral) (number of rats active/total number of rats tested) ([1]; 20 mg/kg, @ 6 hrs): 1/2 @ 6 hrs; Rat Activity (oral) (number of rats active/total number of rats tested) ([1]; 200 mg/kg, @ 1 hr): 3/8 @ 1 hr; Rat Activity (oral) (number of rats active/total number of rats tested) ([1]; 200 mg/kg, @ 2 hrs): 4/8 @ 2 hrs; Rat Activity (oral) (number of rats active/total number of rats tested) ([1]; 200 mg/kg, @ 4 hrs): 2/8 @ 4 hrs; Rat Activity (oral) (number of rats active/total number of rats tested) ([1]; 200 mg/kg, @ 6 hrs): 1/8 @ 6 hrs
2 | CC1(C)OC2COC3(COS(=O)(=O)N[Si](c4ccccc4)(c4ccccc4)c4ccccc4)OC(C)(C)OC3C2O1 (stereo not shown) [Compound 6] | No activity |  |  |  |  |  |  |  | 
3 | CC(C)Oc1ccccc1N1CCN(S(=O)(=O)OCC23OCC4OC(C)(C)OC4C2OC(C)(C)O3)CC1 (stereo not shown) [Compound 39] | No activity | 1/4 @ 4 hrs |  |  |  |  |  |  | 
4 | CCC(=O)[N-]S(=O)(=O)OCC12OCC3OC(C)(C)OC3C1OC(C)(C)O2.[Na+] (stereo not shown) [Compound 19] |  | 4/4 @ 4 hrs | 1/1 @ 0.5 hrs | 11.22 @ 4 hrs m/k | 1/4 @ 0.25 hrs | 0/4 @ 0.5 hrs | 1/4 @ 1 hr | 4/4 @ 2 hrs | Mouse Activity (number of mice active/total number of mice tested) [2, 3]: 0/3 @ 0.5 hrs; Mouse Activity (number of mice active/total number of mice tested) [2, 4]: 3/3 @ 4 hrs; Mouse Activity (number of mice active/total number of mice tested) [2, 6]: 1/1 @ 4 hrs; Mouse Activity ([2]; dosage 30 mg/kg): No activity
5 | CC1(C)OC2COC3(COS(=O)(=O)NCCC(=O)O)OC(C)(C)OC3C2O1 (stereo not shown) [Compound 35] |  |  | 1/1 @ 0.5 hrs |  |  |  |  |  | Mouse Activity ([2]; dosage 30, 100 mg/kg): No Activity
6 | CC1(C)OC2[C@@H](CO[C@@]3(COS(=O)(=O)NS(=O)(=O)C(F)(F)F)OC(C)(C)O[C@@H]23)O1 (stereo partly drawn) [Compound 30, N-trifluoromethylsulfonyl-2,3:4,5-bis-O-(1-methylethylidene)-β-D-fructopyranose sulfamate] |  | 4/4 @ 4 hrs | 1/1 @ 0.5 hrs | 2.38 @ 4 hrs m/k | 3/4 @ 0.25 hrs | 4/4 @ 0.5 hrs | 3/4 @ 1 hr | 4/4 @ 2 hrs | Mouse Activity (number of mice active/total number of mice tested) [2, 3]: 2/3 @ 0.5 hrs; Mouse Activity (number of mice active/total number of mice tested) [2, 4]: 3/3 @ 4 hrs; Mouse Activity (number of mice active/total number of mice tested) [2, 6]: 1/1 @ 4 hrs; Mouse Activity ([2]; dosage 30 mg/kg): No activity
7 | CC1(C)OC2COC3(COS(=O)(=O)NC(=O)O[Si](c4ccccc4)(c4ccccc4)c4ccccc4)OC(C)(C)OC3C2O1 (stereo not shown) [Compound 13] | No activity |  |  |  |  | 1/4 @ 0.5 hrs | 1/4 @ 1 hr |  | 
8 | COC(=O)CCCNS(=O)(=O)OCC12OCC3OC(C)(C)OC3C1OC(C)(C)O2 (stereo not shown) [Compound 8] |  |  | 1/1 @ 0.5 hrs |  |  |  |  |  | Mouse Activity ([2]; dosage 30, 100 mg/kg): No activity
9 | CC1(C)O[C@@H]2[C@@H](CO[C@@]3(COS(=O)(=O)[N-]C(=O)OCc4ccccc4)OC(C)(C)O[C@@H]23)O1.[Na+] [Compound 17, N-(benzyloxy-carbonyl)-2,3:4,5-bis-O-(1-methylethylidene)-β-D-fructopyranose sulfamate sodium salt] |  | 4/4 @ 4 hrs |  | 10.37 @ 4 hrs, m/k | 1/4 @ 0.25 hrs | 2/4 @ 0.5 hrs | 1/4 @ 1 hr | 4/4 @ 2 hrs | ED50 ([1]; @ 6 hrs): 3.26 @ 6 hrs m/k
